# Experimental data as given in publication PMC7613515, “Reading and erasing of the phosphonium analogue of trimethyllysine by epigenetic proteins” (Communications Chemistry, 2022).
# Test system: KDM7BJmjC (M37–N483)
# Assay: MALDI-TOF demethylation assay, KDM7BJmjC
# Type: biochemical
# Settings: 1 hr
# From the text: To investigate whether H3KP9me3 can be demethylated by other human KDM4 subfamily members, recombinant KDM4AJmjC (M1–L359) and KDM4DJmjC (M1–L358) were produced in E. coli following an adaption of literature procedures[38],[39]. […] To test the ability of KDM3 and KDM7 subfamily representatives to demethylate H3KP9me2 or H3KP9me3, KDM3AJmjC (T515–S1317) and KDM7BJmjC (M37–N483) were produced using baculovirus/sf9 and E. coli expression systems, respectively[40],[41]. The synthesis of a histone H3 mimic peptide H3KP9me2 substrate is challenging as the tri-alkylated phosphine group is susceptible to oxidation during synthesis of the protected amino acid and during SPPS requiring oxygen-free conditions. Thus, to investigate if KDM3AJmjC or KDM7BJmjC can catalyse demethylation of H3KP9me2, an appropriate H3KP9me2 substrate was prepared in situ from H3KP9me3 using KDM4EJmjC (2.0 µM), in the presence of KDM3AJmjC (2.0 µM) or KDM7BJmjC (2.0 µM).
# A Bruker Daltonics MALDI-TOF/TOF AutoflexSpeed machine and Bruker MTP 384 target plates (polished steel BC, Part: 8280781) were used. The machine was controlled using Flex control (v. 3.4 build 135.10) and Compass for flex series (v. 1.4) software. Measurements were in the positive ion mode with the reflectron mode enabled. […] Samples were then analysed by MALDI-TOF. […]
substance,measurement,setting,value
"ARTKQTAR(KPme3)STGGKA [H3KP9me3, histone H3 residues 1–15 with trimethylphosphonium lysine analogue at position 9]",demethylation in combination with KDM4EJmjC,"KDM7BJmjC 2.0 µM plus KDM4EJmjC 2.0 µM, peptide 5.0 µM","produced H3KP9me2 (due to KDM4EJmjC catalysis), but did not result in masses consistent with H3KP9me1 or H3KP9"
same,demethylation,"KDM7BJmjC 2.0 µM, H3KP9me2 prepared in situ with KDM4EJmjC",do not catalyse demethylation of H3K9me3 (as anticipated) or H3KP9me3
